# In patent publication US20230095701A1, “Use of Albiflorin in Treatment of Coronavirus Pneumonia” (priority 2020, published 2023):
# Key:
# SphK1 = SphK1 in hippocampus of chronic stress rats, Western Blot; design: SphK1 in the hippocampus (in words): dose or concentration left out as unconfirmed; conditions: for SphK1: hippocampus of chronic stress rats, blank control 1.0, model 1.1
# SphK2 = SphK2 in hippocampus of chronic stress rats, Western Blot; design: SphK2 in the hippocampus (in words): dose or concentration left out as unconfirmed; conditions: for SphK2: hippocampus of chronic stress rats, blank control 1.0, model 1.8
# IL-6 = IL-6 content in plasma of acute stress model mice (ELISA); format: in vivo, ICR mice
# erythropoietin EPO = experiment: Hypoxia tolerance experiment; format: in vivo; conditions: hypoxic state of the body
# IDO1 = IDO1 in hippocampus of chronic stress rats, Western Blot; design: secretion of IDO1 in the hippocampus (in words): dose or concentration left out as unconfirmed; conditions: 7 days; for IDO1: hippocampus of chronic stress rats, blank control 1.0, model 1.0
# cPLA2 = cPLA2 in hippocampus of chronic unpredictable mild stress (CUMS) rats; conditions: 7 days, 7 mg/kg, FIG. 10
# [1] = tested on: intestinal flora metabolism; experiment: Targeted metabolomics (LC-MS/MS, VIP analysis) of feces of chronic stress (CUMS) depression model rats; conditions: 7 mg/kg/d intragastric, 7 days, compared with the depression group
# Protocol: 32 healthy male SD rats, weighing 180-220 g, are randomly divided into a blank control group (Control), a model group (CUMS), a fluoxetine group (FLX), and an albiflorin group (Albiflorin), with 8 in each group.
# Except for the blank control group, all groups receive randomly designed stress stimulation, and are then administrated intragastrically with fluoxetine (10 mg/kg/d) and albiflorin (7 mg/kg/d) for 7 consecutive days in terms of 1.0 mL/100 g body weight after 29 days of stress stimulation, while the corresponding stress stimulation is continued in the course of administration. All drugs are prepared into solutions or suspensions with physiological saline before use, and dissolved by ultrasonic waves.
# After 7 days of administration, the administration ends, and 24 hours later, behavioral tests are performed. After the tests, the animals are anesthetized and sacrificed. The plasma, hippocampal tissues, and feces of the animals are collected separately, and preserved for later use by using appropriate methods according to the experimental requirements. […]
# The metabolite extract is taken, dissolved in 100 μl mobile phase, and the main metabolites in the sample are determined by LC-MS/MS (Shimadzu LC-20AD-Qtrap 5500 tandem mass spectrometer (SCIEX, USA)). […]
# The obtained chromatographic peak information (Wiff file) is imported into Multiquant 3.0 (SCIEX, USA), and the obtained chromatographic peaks are area-integrated and checked manually. […] The analyzed data is imported into Metaboanalyst for multivariate analysis (PLS-DA, OPLS-DA and VIP analysis), metabolic pathways analysis and correlation analysis.
# intestinal flora = experiment: Intestinal flora function and structure in CUMS rats (metabolomics, 16sDNA high-throughput metagenomic sequencing); conditions: 7 days
# [2] = compared with the depression group, VIP analysis, FIG. 15
smiles,measurement,setting,value
"CNCCC(Oc1ccc(C(F)(F)F)cc1)c1ccccc1 (stereo not drawn) [Fluoxetine, fluoxetine, reference compound]",SphK1,SphK1; fluoxetine group,1.5 ± 0.009
same,SphK2,SphK2; fluoxetine group,2.1 ± 0.016
"C[C@@]12C[C@@]3(O)O[C@@H](O1)[C@]1(COC(=O)c4ccccc4)[C@H]3C[C@@]12O[C@@H]1O[C@H](CO)[C@@H](O)[C@H](O)[C@H]1O [Paeoniflorin, reference compound]",secretion of IL-6 in the blood,"IL-6; 4 mg/kg and 8 mg/kg intragastric, P<0.05, FIG. 7",most significant inhibitory effect
same,secretion of IL-6 in the blood,"IL-6; dose range 4, 8, 16, 32, 64 and 128 mg/kg intragastric, 2 days, FIG. 7",certain inhibitory effect
C[C@]12C[C@@H](O)[C@@H]3C[C@@]1(O[C@@H]1O[C@H](CO)[C@@H](O)[C@H](O)[C@H]1O)[C@@]3(COC(=O)c1ccccc1)C(=O)O2 [Albiflorin],secretion of IL-6,"IL-6; 8 mg/kg intragastric, P<0.01, FIG. 8",most significant inhibitory effect
same,secretion of IL-6,"IL-6; low dose range, intragastric, 2 days, FIG. 8",certain inhibitory effect
same,secretion of IL-6,"IL-6; with the increase of the administration dose (up to 128 mg/kg), FIG. 8",secretion of IL-6 is promoted obviously
same,level of erythropoietin EPO,erythropoietin EPO,increase
same,secretion of IDO1 in the hippocampus (in words),"IDO1; CUMS rats, P<0.01",significantly inhibited
same,IDO1,IDO1; 7 mg/kg,0.8 ± 0.007
same,IDO1,IDO1; 14 mg/kg,0.7 ± 0.007
same,SphK1 in the hippocampus (in words),"SphK1; CUMS rats, 7 days, P<0.01",significantly decreased
same,SphK1,"SphK1; 3.5 mg/kg, 7 days",1.2 ± 0.009
same,SphK1,"SphK1; 7 mg/kg, 7 days",0.7 ± 0.004
same,SphK1,"SphK1; 14 mg/kg, 7 days",0.5 ± 0.001
same,SphK2 in the hippocampus (in words),"SphK2; CUMS rats, 7 days, P<0.01",significantly decreased
same,SphK2,"SphK2; 3.5 mg/kg, 7 days",2.2 ± 0.016
same,SphK2,"SphK2; 7 mg/kg, 7 days",1.6 ± 0.010
same,SphK2,"SphK2; 14 mg/kg, 7 days",2.1 ± 0.015
same,increase of cPLA2 in the hippocampus,cPLA2,inhibit the increase of cPLA2
same,overall metabolism of intestinal flora,"[1]; CUMS rats, VIP analysis, FIG. 6",significantly improved
same,amino acid and vitamin content,[1]; feces of CUMS rats,increase
same,bile acid content,[1]; feces of CUMS rats,increase
same,flora structure compared with the blank control group (cluster analysis),"intestinal flora; 7 mg/kg/d, P>0.05, FIG. 14",without any statistical difference
same,"content of beneficial bacteria Firmicutes, especially lactic acid bacteria","intestinal flora; 7 mg/kg/d, compared with the stress rat model group, FIG. 14",significant increase
same,content of bile acids and content of amino acids and vitamins,intestinal flora; [2],increase
same,overall metabolism of intestinal flora,intestinal flora; [2],significantly improved
